Patent US9115380B2, “Kits and methods for generating 5′ capped RNA” (priority 2006, dated 2015)
Read-outs that look alike come from different tables or passages of the source.

Assays:
[1] = molecular target: RNA guanyltransferase activity of the vaccinia capping enzyme system (Vaccinia virus, UniProt P04298); conditions: permeabilized vaccinia virions; cited from earlier work
[2] = test system: tobacco acid pyrophosphatase (TAP); format: biochemical; conditions: capped RNA prepared per Method 6
[3] = molecular target: vaccinia mRNA (nucleoside-2′-O—) methyltransferase (Vaccinia virus, UniProt P07617); format: biochemical
[4] = test system: rabbit reticulocyte lysate; format: biochemical; conditions: rabbit reticulocyte lysate
[5] = molecular target: vaccinia capping enzyme (Vaccinia virus, UniProt P04298); format: biochemical
[6] = test system: wheat germ lysate; format: biochemical; conditions: wheat germ lysate, poly(A)-tailed Renilla luciferase RNA
[7] = molecular target: vaccinia capping enzyme (guanine 7-methyltransferase activity) (Vaccinia virus, UniProt P04298); format: biochemical
[8] = test system: BDCM cells; format: cell-based; conditions: for relative translation efficiency: poly(A)-tailed Renilla luciferase RNA
[9] = test system: HeLa cells; format: cell-based; conditions: GTP-capped poly(A)-tailed Renilla luciferase RNA
[10] = poly(A)-tailed Renilla luciferase RNA, cap 0 structure, GTP-capped cap 0 RNA = 100%
[11] = poly(A)-tailed Renilla luciferase RNA, cap I structure
[12] = poly(A)-tailed firefly luciferase RNA, cap I structure
[13] = cap 0 structure, GTP-capped cap 0 RNA = 100%

| SMILES | activity relative to GTP in [^32P]-PPi exchange assay [1] | removal of the cap nucleotide by tobacco acid pyrophosphatase (51-base band on PAGE) [2] | methylation of the 2′-hydroxyl of the 5′-penultimate nucleotide by mRNA (nucleoside-2′-O—) methyltransferase [3] | average relative translation efficiency [4, 10] [%] | average relative translation efficiency [4, 11] [%] | average relative translation efficiency [4, 12] [%] | conversion of 51-base primary RNA transcript to 52-base capped RNA (in words) [5] | relative translation efficiency [6, 13] [%] | relative translation efficiency ([6]; cap I structure) [%] | conversion of 51-base primary RNA transcript into 52-base capped RNA (in words) [7] | methylation of the N^7 position of the cap nucleotide (radioactive methyl group in 52-base band) [7] | RLUs with cap I structure relative to cap 0 structure ([8]; GTP-capped poly(A)-tailed Renilla luciferase RNA) | RLUs with cap I structure relative to cap 0 structure [9] | relative translation efficiency [8, 13] [%] | relative translation efficiency ([8]; cap I structure, GTP-capped RNA = 100%) [%] |
| --- | --- | --- | --- | --- | --- | --- | --- | --- | --- | --- | --- | --- | --- | --- | --- |
| Nc1nc2c(ncn2[C@H]2C[C@H](O)[C@@H](COP(=O)(O)OP(=O)(O)OP(=O)(O)O)O2)c(=O)[nH]1 [2′-dGTP, 2′-deoxyguanosine-5′-triphosphate] | approximately 6% | 51-base band was observed | 52-base radioactive band was observed | 118 | 84 | 128 | quantitatively converted | 54 | 54 | – | – | – | – | – | – |
| Nc1nc2c(ncn2[C@@H]2O[C@H](COP(=O)(O)OP(=O)(O)OP(=O)(O)O)[C@@H](O)[C@H]2O)c(=O)[nH]1 [GTP, reference compound] | – | – | – | – | – | – | quantitatively converted | – | – | quantitatively converted | contained the radioactive methyl group | about 1.3 times higher | about 2.2 times higher | – | – |
| Nc1nc2c(ncn2[C@@H]2O[C@H](COP(=O)(O)OP(=O)(O)OP(=O)(O)O)[C@@H](O)[C@H]2N)c(=O)[nH]1 [2′-amino-dGTP, 2′-amino-2′-deoxyguanosine-5′-triphosphate] | – | 51-base band was observed | 52-base radioactive band was observed | 148 | 144 | 100 | quantitatively converted | 90 | 110 | – | – | – | – | 150 | 177 |
